From patent publication US7195783B2, “Hypericin and hypericum extract: specific T-type calcium channel blocker, and their use as T-type calcium channel targeted therapeutics” (FX Life Sciences International GmbH, priority 1999, dated 2007)
“Also recorded” adds a separate entry of the source.

How the values were obtained:
[1] = test system: L-type calcium channels; assay: Whole-cell patch-clamp, L-type calcium current in cultured N1E-115 neuroblastoma cells; type: cell-based, Mouse; settings: cultured N1E-115 cells; hypericin 0.1, 1 and 10 uM (FIG. 1)
Experimental: (§1) Mouse neuroblastoma cells (N1E115) were cultured in Dulbecco's modified Eagle's medium (GIBCO) containing 10% fetal bovine serum at 37° C. in a humidified atmosphere of 5% CO2 in air. The medium was changed every 3–4 days. After mechanical agitation, 3×10^4 cells were replanted in 35 mm tissue culture dishes containing 4 ml of bath solution. After cell attachment, the dish was mounted on the stage of an inverted phase-contrast microscope (Nikon) for Ca^2+ channel current recording. These cells expressed predominately T channel currents. In experiments where L channels were specifically sought, the cells were grown and maintained at confluence for 3–4 weeks under the same culture conditions with the addition of 2% (vol/vol) dimethyl sulfoxide. Three to five days before use, the cells were replanted with the same medium. These cells expressed predominately L channel currents. A small number of these cells also expressed T channel currents.
The whole-cell version of the patch-clamp technique was used. […] Since the peak currents measured with 20 mM Ba^2+ as the charge carrier were usually small (about 200 pA), the series resistance compensation was not usually employed. […] For every single-cell recording, stable readings were first obtained for 5 min; the drug was then added to the bath solution. […]

[2] = test system: T-type calcium channel; assay: Whole-cell patch-clamp, T-type calcium current in N1E-115 cells; type: cell-based, Mouse; settings: for effect on T-type calcium current: hypericin 0.1 to 10 uM (FIG. 3)
Experimental: as §1
The whole-cell version of the patch-clamp technique was used. The pipettes had resistance of 2–15 M. Membrane current recordings were made with an Axopatch-1C (Axon Instruments) patch-clamp amplifier. All signals were filtered at 1 kHz and stored in the computer. Since the peak currents measured with 20 mM Ba^2+ as the charge carrier were usually small (about 200 pA), the series resistance compensation was not usually employed. If the capacitive transient overlapped with the onset of the inward current, or if the spatial voltage control was inadequate (i.e., NIE-115 cells with long neural outgrowths), the experimental data were rejected. Unless otherwise specified the current-voltage plots were constructed by using the peak values (corrected for leakage) from the original records for both T and L channel currents. The holding membrane potential was fixed at −80 mV when the T channels were under investigation or at […] when the L channels were studied. […] For every single-cell recording, stable readings were first obtained for 5 min; the drug was then added to the bath solution. […]

[3] = test system: L-type calcium current; assay: L-type calcium current in vascular smooth muscle cells (VSMC); type: cell-based; settings: vascular smooth muscle cells (FIG. 6)
[4] = test system: L-type calcium current; assay: L-type calcium current in ventricular cells from baby rats; type: cell-based; settings: ventricular cells from baby rats (FIG. 7)

In the case of hypericin, the “effect on L-type calcium current activity” value [1] is reported as “slight but not significant increase; also recorded: does not significantly affect”, the “inhibition on T-type calcium current” value ([2]; 0.15 ug/ml of pure hypericin (FIG. 3)) is reported as “less than 10%” and the “effect on T-type calcium current” value [2] is reported as “inhibited T-type calcium currents in a dose-dependent manner”. For the same substance, the “effect on T-type calcium current” value ([2]; listed as Hypericin) was “dose-dependent inhibitory effect”, the “effect on L-type calcium current” value [3] was “did not affect” and the “effect on L-type calcium current” value [4] was “did not affect”.
